Source: PubChem BioAssay (NCI)
“And” between values parts separate entries of the source, which are not always exact repeats. Identical values can stand only once.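 Each compound was tested at five concentrations against cells in 96-well plates for 48 hours. At the GI50, growth is halved. Definition used: TGI = concentration required for complete inhibition of growth.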

What was measured:
Assay in all cases: NCI tumour cell line growth inhibition, 48 h
RXF-631 renal = test system: RXF-631 renal
SNB-78 CNS = test system: SNB-78 CNS
XF 498 CNS = test system: XF 498 CNS
M19-MEL melanoma = test system: M19-MEL melanoma
KM20L2 colon = test system: KM20L2 colon
NCI/ADR-RES ovarian = test system: NCI/ADR-RES ovarian
HS 578T breast = test system: HS 578T breast
DU-145 prostate = test system: DU-145 prostate
MDA-N = test system: MDA-N
SN12K1 renal = test system: SN12K1 renal
P388/ADR leukemia = test system: P388/ADR leukemia
P388 leukemia = test system: P388 leukemia

Row | Structure (SMILES) | TGI (RXF-631 renal) | TGI (SNB-78 CNS) | TGI (XF 498 CNS) | TGI (M19-MEL melanoma) | TGI (KM20L2 colon) | other results
1 | Clc1cc(Cl)cc(C2SCc3nc4ccccc4n32)c1 (stereo not given) | 32.9 µM | 60.1 µM |  |  |  | 
2 | O=C1C2c3[nH]c4ccccc4c3C3CCC(c4ccccc4)CC3C2C(=O)N1c1ccccc1 (stereo not given) |  | > 100 µM | > 100 µM | > 100 µM |  | 
3 | CCCCN1C(=O)C2c3[nH]c4ccccc4c3C3CCCCC3C2C1=O (mixture of isomers) | 36.4 µM | 50 µM | 27.8 µM | > 100 µM | > 100 µM | 
4 | CCCCCCCCCCCCCCCCSS(C)(=O)=O | 35.6 µM |  | 16.9 µM |  | > 66.1 µM | TGI (NCI/ADR-RES ovarian): 7.05 µM; TGI (HS 578T breast): > 100 µM; TGI (DU-145 prostate): > 100 µM; TGI (MDA-N): > 100 µM
5 | N#CC1=C(c2ccccc2)NN(Cc2ccccc2)C(c2ccc(Cl)cc2)CC1=O (stereo not given) | 85.3 µM | > 100 µM | 50.1 µM |  | 75.8 µM | 
6 | O=c1/c(=C/c2ccccc2O)sc2nc3ccccc3n12 | > 100 µM | > 100 µM |  | > 100 µM | > 100 µM | 
7 | CN(C(=N)c1ccccc1)c1ccccc1 |  | > 100 µM |  | > 100 µM | > 100 µM | 
8 | CC(=O)CC(=O)ON(C)C(C)=O |  | > 100 µM | > 100 µM | > 100 µM | > 100 µM | 
9 | C/C(=N\NC(=O)C[n+]1ccccc1)c1sc(-c2nc(C)c(/C(C)=N/NC(=O)C[n+]3ccccc3)s2)nc1C |  | > 100 µM |  | > 100 µM | > 100 µM | 
10 | CCOC(=O)NC(=O)c1cn(CC(=O)NCC(=O)NCC(=O)N2CCN(CCn3c(C)nc(C(N)=O)c3N)CC2)c(=O)[nH]c1=O | > 100 µM | > 100 µM | > 100 µM | > 100 µM | > 100 µM | 
11 | NC(N)=NS(=O)(=O)c1ccc(NC(=O)c2cccn3c(=O)c4ccccc4nc23)cc1 | > 100 µM | > 100 µM | 76.8 µM | > 100 µM | 63.7 µM | 
12 | Clc1cc2nc[nH]c2cc1Cl |  | > 100 µM | > 100 µM | > 100 µM |  | 
13 | Cc1cc(Cl)ccc1NC(=O)C1C(=O)C(=O)N(c2ccc(Cl)cc2C)C1=O (stereo not given) | > 100 µM | > 100 µM |  | > 100 µM | > 100 µM | 
14 | CCOc1cccc2sc(N)nc12 |  | > 100 µM |  | > 100 µM | > 100 µM | 
15 | COC(=O)c1ccc(CS(=O)(=O)c2ccccc2)cc1 | > 100 µM | > 100 µM | > 100 µM | > 100 µM | > 100 µM | 
16 | COc1cccc(-c2cc(=O)c3cc(C)c(C)c(C(=O)O)c3o2)c1 | > 100 µM | > 100 µM | > 100 µM | > 100 µM | > 100 µM | 
17 | CC(C)COC(=O)N1N=NC2C3CC(=O)C(O3)C21 (stereo not given) | > 100 µM | > 100 µM |  | > 100 µM | > 100 µM | 
18 | CC(=O)O[C@H]1CC[C@@]2(C)C(=CC[C@@H]3C2CC[C@]2(C)C(=O)NC(=O)CC32)C1 (stereo not given in full) | > 100 µM | > 100 µM | > 100 µM | > 100 µM | > 100 µM | 

Row | Structure (SMILES) | TGI (RXF-631 renal) | TGI (SNB-78 CNS) | TGI (XF 498 CNS) | TGI (M19-MEL melanoma) | TGI (KM20L2 colon) | other results
19 | CS(=O)(=O)OCCCCOS(C)(=O)=O |  | 233 µM |  | 230 µM | > 235 µM | TGI (SN12K1 renal): 224 µM; GI50 (NCI/ADR-RES ovarian): > 1000 µM; TGI (NCI/ADR-RES ovarian): 250 µM and > 1000 µM; GI50 (HS 578T breast): > 555 µM; TGI (HS 578T breast): > 1000 µM; TGI (P388/ADR leukemia): 246 µM; GI50 (DU-145 prostate): 774 µM; TGI (DU-145 prostate): 250 µM and > 1000 µM; GI50 (MDA-N): > 1000 µM; TGI (MDA-N): 250 µM and > 1000 µM; TGI (P388 leukemia): 250 µM
20 | O=C(/C=C/c1ccc[nH]1)c1ccccc1 |  | > 100 µM |  | > 100 µM | > 100 µM | 
21 | CC1OC(OC23C(=O)CC(C)(O)CC2(O)C=CC2=C3C(=O)c3ccc(C4CC(OC5CCC(OC6CC(O)C(O)C(C)O6)C(C)O5)C(O)C(C)O4)c(O)c3C2=O)CCC1O (stereo not given) | 35.6 µM and 26.5 µM | 35.2 µM and 34.4 µM | 32.9 µM and 32.1 µM |  | 36.3 µM and 34.5 µM | 
22 | COc1ccc2c(c1)[n+]([O-])c(/C(C)=N/NC(N)=S)c(C)[n+]2[O-] | > 100 µM | > 100 µM | > 100 µM | > 100 µM | > 100 µM | TGI (NCI/ADR-RES ovarian): 96.5 µM; TGI (HS 578T breast): > 100 µM; TGI (DU-145 prostate): > 100 µM; TGI (MDA-N): > 100 µM
23 | [O-]c1ccccc1[C-]=Nc1ccccc1O.[O-]c1ccccc1[C-]=Nc1ccccc1O.[O]=[U]=[O] |  | 61.2 µM | 42 µM | 48.6 µM | > 100 µM | GI50 (XF 498 CNS): 20 µM; GI50 (KM20L2 colon): 0.856 µM; GI50 (M19-MEL melanoma): 12.3 µM; GI50 (SNB-78 CNS): 21.3 µM
24 | CN1CCN2c3ccccc3CC(C#N)(C#N)C2C1 (stereo not given) | > 100 µM | > 100 µM |  | > 100 µM | > 100 µM | 
25 | CCOC(=O)C1Nc2ccc([N+](=O)[O-])cc2[C@H]2OCC[C@@H]12 (stereo not given in full) | > 100 µM | > 100 µM | > 100 µM | > 100 µM | > 100 µM | 
26 | O=C1C[C@@H]2[C@@H](C=CC23CC3)N1O |  | > 100 µM |  | > 100 µM | > 100 µM | 
27 | CC(C)(C)c1cc(O)c2c(c1O)C(=O)CCC2 | > 100 µM | > 100 µM | 71.2 µM | 84.9 µM | > 100 µM | 
28 | CN1C(=O)C(C)(C)NS1(=O)=O | > 100 µM | > 100 µM | > 100 µM | > 100 µM | > 100 µM | 
29 | C/C(=N\N)C(CN1CCCCC1)C(c1ccccc1)c1c(O)c2ccccc2oc1=O (stereo not given) | > 100 µM | > 100 µM | > 100 µM | > 100 µM | > 100 µM | TGI (NCI/ADR-RES ovarian): > 100 µM; TGI (HS 578T breast): > 100 µM; TGI (DU-145 prostate): > 100 µM
30 | CCOc1ccc(NC(=O)/C(Cc2nc3ccccc3[nH]c2=O)=N\O)cc1 |  | > 100 µM |  | > 100 µM | > 100 µM | 
31 | C=C(c1ccccc1)[C@@]1(O)CCCC[C@H]1NC(c1ccccc1)c1ccccc1 |  | 50.7 µM |  | 28.3 µM | 43.5 µM | 
32 | CO[C@H](C(=O)O[C@H]1C(=O)N2CCC3CCC1C32C)c1ccccc1 (stereo not given in full) |  | > 100 µM | > 100 µM | > 100 µM | > 100 µM | 
33 | Cc1cc(N(CCC#N)CCC#N)ccc1/C=C(\NC(=O)/C=C/c1ccccc1)NC(=O)Nc1ccccc1C | > 100 µM | > 100 µM |  | > 100 µM | > 100 µM | 
34 | COc1cccc(-c2cc(C(=O)Nc3ccc(Cl)cc3)nc(N)n2)c1 |  | > 100 µM | > 100 µM | > 100 µM | > 100 µM | 
35 | CC12CCC(=O)N1c1cc([N+](=O)[O-])ccc1N2 (stereo not given) | > 100 µM | > 100 µM | > 100 µM | > 100 µM | > 100 µM | 
